Data on 34 molecules can be found in patent publication US10221255B2, “Composition for the immediate stopping of a free-radical polymerization” (BASF SE, priority 2015, dated 2019).

The nature of data set [1]: Heating test in acrylic acid: inhibition period at 120° C. under air. As to conditions: PTZ 20 ppm in acrylic acid, average of three.
Experimental: In this example, heating tests in acrylic acid (AA) were carried out. In this test, a sample of acrylic acid is maintained at 120° C. under an air atmosphere and the time until occurrence of turbidity in the solution is determined. The time is considered to be the inhibition period (IP) of the acrylic acid sample.
A part 1 was taken from the pure acrylic acid distillate RD and a stock solution 1 comprising 1000 ppm by weight of phenothiazine (PTZ) was produced with stirring.
40 parts by weight of stock solution 1 were mixed with 960 parts by weight of the pure acrylic acid distillate RD so as to give the stock solution 3. Part of this stock solution 3 was divided into identical samples having volumes of 1 ml.
Samples taken from the stock solutions 2 were combined with the various 1 ml samples obtained from the stock solutions 3 in such a way that the desired compositions of acrylic acid, phenothiazine (PTZ), ionic liquids IL, solvents LM or mixtures IL/LM of ionic liquids IL with solvents LM were obtained by doping. The doped samples produced in this way were provided for further examination on the same day. For repeat measurements, fresh doped samples were produced in order to minimize the influence of the acrylic acid oligomers obtained by Michael oligomerization.
To examine the polymerization tendency of the respective doped sample, three HPLC vials (transparent vessels having a fill volume of 1.5 ml) were in each case charged with 0.5 ml of the respective sample under air and subsequently tightly closed by means of a crimped cap. Immediately after production, in each case up to 92 vials charged as described were hung in a holder made for this purpose and kept at a temperature of 120° C. in a convection drying oven while the holder rotated at six revolutions per minute in order to ensure complete mixing in the vials (the liquid content of the respective vial came into contact with the crimped cap six times per minute). The time T to complete polymerization of the respective sample in the associated vial was then measured. For this purpose, the samples in the vials in the drying oven were monitored by means of a digital video camera and the video film was subsequently evaluated visually.
Three associated values of T were determined in this way for each doped sample and these were arithmetically averaged.
When mixtures of ionic liquid and solvent were used as additive, the weight ratio of ionic liquid to solvent or to the solvent mixture (IL/LM) was 20/80.
The conditions of data set [2]: relative static permittivity, liquid pure substance; cited from earlier work.
For data set [3] the following is noted: Hansen solubility parameter, room temperature, about 23° C., cited from earlier work; for δD: LONDON dispersion forces; for δP: dipole interaction forces; for δH: specific interaction forces (hydrogen bonds etc.).
The nature of data set [4]: Hansen solubility parameters and solubility distance Ra of solvents. In kind it is physicochemical. The following applies: solubility distance calculated from formula 1. Set-up: key: solubility distance Ra in MPa^1/2. The source says:
The value will hereinafter also be referred to as solubility distance Ra. The definition and calculation of the solubility parameters in the three-dimensional Hansen solubility space are described in: C. M. Hansen: “The three dimensional solubility parameters” J. Paint Technol. […] In this Hansen space, δD denotes the LONDON dispersion forces, δP denotes the Debye interaction forces between permanent dipoles and also the Keesom interaction forces between induced and permanent dipoles and δH denotes the specific interaction forces (hydrogen bonds, acid/base, donor/acceptor, etc.). The unit of the parts of the parameters is in each case [MPa^1/2].
The Hansen solubility parameters for many solvents are tabulated in standard works such as Hansen Solubility Parameters: A User's Handbook, C. […] It is also possible to use known modeling software, for example HSPIP 3.1.14 (3rd Edition), developed and marketed by C. M. Hansen, in order to calculate the Hansen solubility parameters on the basis of the chemical structure of the solvent.

Data set [5] in a line: Solubility of phenothiazine in ionic liquid/solvent mixtures relative to pure solvent. As to conditions: 20% by weight ionic liquid, 80% by weight solvent; room temperature; FIGS. 1 to 4. As to the method:
In the same way, the solubility of phenothiazine in the pure solvent was determined.

Data set [6] can be described thus: Phase diagram of the system phenothiazine/proglyme/EMIM acetate. In kind it is physicochemical. The following applies: room temperature, FIG. 5. As for the experimental part: The phase diagram (triangular diagram) of the system phenothiazine/proglyme/EMIM acetate was determined at room temperature. In the triangular diagram, the corners correspond to the pure materials. The sides of the triangle correspond to two-component mixtures. The proportions of phenothiazine/proglyme/EMIM acetate at any point P are given by the intersections of the parallels to the side through P with the other sides. The phase behavior (single-phase, two phases liquid/liquid, two phases solid/liquid, three-phase) at selected points is indicated by symbols.

Data set [7] in a line: Phase diagram of the system phenothiazine/proglyme/EMIM ethylsulfate. In kind it is physicochemical. The following applies: room temperature, FIG. 6. As for the experimental part: The phase diagram (triangular diagram) of the system phenothiazine/proglyme/EMIM ethylsulfate was determined at room temperature. In the triangular diagram, the corners correspond to the pure materials. The sides of the triangle correspond to two-component mixtures. The proportions of phenothiazine/proglyme/EMIM ethylsulfate at any point P are given by the intersections of the parallels to the sides through P with the other sides. The phase behavior (single-phase, two phases liquid/liquid, two phases solid/liquid, three-phase) at selected points is indicated by symbols.

Turning to `CN(C)CCCN` [3-(Dimethylamino)-1-propylamine, 3-(dimethylamino)-1-propylamine], the Inhibiting period in data set [1] (additive 1000 ppm) was 407 min.
Still for that read-out and setting: the figure for `CC(=O)O` [Acetic acid] is 347 min.
`CC#N` [Acetonitrile]: in data set [2], the “εr at 20° C.” value is listed as 36.8. Moreover, in data set [3], the δD is recorded as 15.3 MPa^1/2, the δP is given as 18.0 MPa^1/2 and the δH is recorded as 6.1 MPa^1/2. Moreover, the Ra in data set [4] was 7.8. For the same molecule, in data set [1] (additive 1000 ppm), the Inhibiting period stood at 335 min.
`CCCCC(CC)COC(=O)C(C)O` (centres unmarked) [Agnique AE 3 2 EH, 2-ethylhexyl lactate] showed an Inhibiting period in data set [1] (additive 1000 ppm) of 279 min.
On the same count and under the same terms, the figure for `CC(O)C(=O)N(C)C` (centres unmarked) [Agnique AMD 3 L, N,N-dimethyllactamide] is 405 min.
In data set [1] (additive 1000 ppm), `CCCCCCCCO` [Agnique FOH 898, n-octanol] yielded an Inhibiting period of 332 min.
In turn, `COc1ccc(C(OC)OC)cc1` [Anisacetal, p-(dimethoxymethyl)anisole] displayed an Inhibiting period in data set [1] (additive 1000 ppm) of 320 min.
With `N#Cc1ccccc1` [Benzonitrile], the “εr at 20° C.” value in data set [2] is recorded as 25.7. Also, in data set [3], the δD is given as 18.8 MPa^1/2, the δP is given as 12.0 MPa^1/2 and the δH was 3.3 MPa^1/2. Further, the Ra in data set [4] was 4.6. For the same molecule, in data set [1] (additive 1000 ppm), the Inhibiting period is listed as 334 min.
In data set [1] (additive 1000 ppm), `OCc1ccccc1` [Benzyl alcohol] returned an Inhibiting period of 355 min.
As for `CCCCCCCCCC(=O)N(C)C` [C10-fatty acid dimethylamide], in data set [2], the “εr at 20° C.” value was 13.8. Besides, in data set [3], the δD is recorded as 16.6 MPa^1/2, the δP is listed as 6.7 MPa^1/2 and the δH is on record as 5.7 MPa^1/2. The Inhibiting period in data set [1] (additive 1000 ppm) came out at 335 min.
Regarding `O=C1CCCCC1` [Cyclohexanone], the “εr at 20° C.” value in data set [2] is on record as 16.1. In data set [3], the δD is listed as 17.8 MPa^1/2, the δP is recorded as 8.4 MPa^1/2 and the δH is on record as 5.1 MPa^1/2. In addition, the Ra in data set [4] is reported as 3.2. The Inhibiting period in data set [1] (additive 1000 ppm) turned out to be 75 min.
In turn, `O` [DI water, deionized water] showed an Inhibiting period in data set [1] (additive 1000 ppm) of 327 min.
Regarding `C[S+](C)[O-]` [DMSO], the “εr at 20° C.” value in data set [2] is 47.3. In data set [3], the δD is recorded as 18.4 MPa^1/2, the δP is reported as 16.4 MPa^1/2 and the δH is 10.2 MPa^1/2. Also, the Ra in data set [4] is recorded as 7.4. Moreover, in data set [1] (additive 1000 ppm), the Inhibiting period came out at 317 min.
In data set [1] (additive 1000 ppm), `C1CCC2CCCCC2C1` (centres unmarked) [Decahydronaphthalene] displayed an Inhibiting period of 347 min.
For the molecule `CCCCC(CC)COC(=O)CCCCC(=O)OCC(CC)CCCC` (centres unmarked) [Di(2-ethylhexyl) adipate], in data set [2], the “εr at 20° C.” value is recorded as 2.1. Also, in data set [3], the δD was 16.2 MPa^1/2, the δP was 4.6 MPa^1/2 and the δH is reported as 7.7 MPa^1/2. Also, the Ra in data set [4] is listed as 6.8. This molecule had an Inhibiting period in data set [1] (additive 1000 ppm) of 350 min.
As for `CCCCOC(=O)CCCCC(=O)OCCCC` [Dibutyl adipate (Cetiol B), Dibutyl adipate], the “εr at 20° C.” value in data set [2] is reported as 3.0. In data set [3], the δD is 16.4 MPa^1/2, the δP was 4.3 MPa^1/2 and the δH is 5.9 MPa^1/2. Besides, in data set [4], the Ra is 6.8. The molecule also had an Inhibiting period in data set [1] (additive 1000 ppm) of 347 min.
On to `COC(=O)c1ccccc1C(=O)OC` [Dimethyl phthalate], for which the Inhibiting period in data set [1] (additive 1000 ppm) stood at 348 min.
Regarding `COC(=O)CCC(=O)OC` [Dimethyl succinate], the “εr at 20° C.” value in data set [2] is reported as 7.3. In data set [3], the δD is 16.1 MPa^1/2, the δP is 7.7 MPa^1/2 and the δH is 8.8 MPa^1/2. Besides, the Ra in data set [4] is listed as 4.7. In data set [1] (additive 1000 ppm), this molecule had an Inhibiting period of 348 min.
In data set [1] (additive 1000 ppm), `CN1CCN(C)C1=O` [Dimethylethyleneurea] came in with an Inhibiting period of 313 min.
`COCC(C)OCC(C)OC` (centres unmarked) [Dipropylene glycol dimethyl ether]: the “εr at 20° C.” value in data set [2] is given as 10.4. In data set [3], the δD is 15.5 MPa^1/2, the δP is on record as 4.6 MPa^1/2 and the δH is 6.1 MPa^1/2. Also, the Ra in data set [4] is reported as 7.1. Moreover, in data set [1] (additive 1000 ppm), the Inhibiting period was determined as 339 min.
Turning to `OCCO` [Ethylene glycol], the Inhibiting period in data set [1] (additive 1000 ppm) is given as 365 min. In addition, the “relative solubility of phenothiazine in a mixture of ionic liquid and solvent, based on the solubility in the pure solvent” value in data set [5] was “only a small solubility-increasing effect or solubility-reducing effect”.
Take `NCCN` [Ethylenediamine]: the Inhibiting period in data set [1] (additive 1000 ppm) amounted to 341 min.
In the case of `COC(=O)c1ccccc1` [Methyl benzoate], the “εr at 20° C.” value in data set [2] is recorded as 6.7. In data set [3], the δD was 18.9 MPa^1/2, the δP was 8.2 MPa^1/2 and the δH is 4.7 MPa^1/2. In addition, the Ra in data set [4] is reported as 4.9. Besides, the Inhibiting period in data set [1] (additive 1000 ppm) worked out at 350 min.
On to `CCCCC(C)=O` [Methyl butyl ketone], for which the “εr at 20° C.” value in data set [2] is 14.5. In data set [3], the δD is 15.3 MPa^1/2, the δP is given as 6.1 MPa^1/2 and the δH was 4.1 MPa^1/2. For the same molecule, the Ra in data set [4] is recorded as 6.3. The Inhibiting period in data set [1] (additive 1000 ppm) is given as 309 min.
As to `C1COCCN1` [Morpholine], the “εr at 20° C.” value in data set [2] was 7.8. Also, in data set [3], the δD was 18.0 MPa^1/2, the δP is reported as 4.9 MPa^1/2 and the δH was 11.0 MPa^1/2. The Ra in data set [4] is listed as 8.1. This molecule showed an Inhibiting period in data set [1] (additive 1000 ppm) of 410 min.
On to `Cn1ccnc1` [N-Methylimidazole], for which the “εr at 20° C.” value in data set [2] is 32.0. Also, in data set [3], the δD was 19.7 MPa^1/2, the δP is recorded as 15.6 MPa^1/2 and the δH was 11.2 MPa^1/2. In addition, the Ra in data set [4] is 8.8. The same molecule showed an Inhibiting period in data set [1] (additive 1000 ppm) of 366 min.
Take `CN1CCCC1=O` [N-Methylpyrrolidone]: the “εr at 20° C.” value in data set [2] is 32.8. In addition, in data set [3], the δD is on record as 16.8 MPa^1/2, the δP was 2.8 MPa^1/2 and the δH is 6.7 MPa^1/2. Also, the Ra in data set [4] is 8.2. This molecule also had an Inhibiting period in data set [1] (additive 1000 ppm) of 343 min.
Molecule `CCC(=O)O` [Propionic acid] had an Inhibiting period in data set [1] (additive 1000 ppm) of 337 min.
Regarding `O=S1(=O)CCCC1` [Sulfolane], in data set [2], the “εr at 20° C.” value is reported as 42.7. In data set [1] (additive 1000 ppm), this molecule showed an Inhibiting period of 330 min.
Take `c1ccc2c(c1)Nc1ccccc1S2` [phenothiazine]: in data set [6], the “phase behavior (compatibility of ionic liquid and solvent)” value was “an incompatibility between the ionic liquid and the solvent (formation of two liquid phases) is eliminated by the addition of phenothiazine above a particular concentration”; the “solubility of phenothiazine in the solvent on addition of ionic liquid” value is given as “even small additions of the ionic liquid increase the solubility of phenothiazine in the solvent, with a linear increase up to the solubility in the pure ionic liquid”. In addition, in data set [7], the “phase behavior (compatibility of ionic liquid and solvent)” value is “an incompatibility between the ionic liquid and the solvent (formation of two liquid phases) is eliminated by the addition of phenothiazine above a particular concentration”; the “solubility of phenothiazine in the solvent on addition of ionic liquid” value is listed as “even small additions of the ionic liquid increase the solubility of phenothiazine in the solvent, with a linear increase or a slight synergistic effect up to solubility in the pure ionic liquid”.
For `O=C1CCCO1` [γ-Butyrolactone], the “εr at 20° C.” value in data set [2] was 41.4. Also, in data set [3], the δD is 18.0 MPa^1/2, the δP was 16.6 MPa^1/2 and the δH was 7.4 MPa^1/2. For the same molecule, the Ra in data set [4] was 6.1. Further, in data set [1] (additive 1000 ppm), the Inhibiting period was 361 min.
In data set [1] (additive 29 ppm), “N-ethyl-N′-methylimidazolium ethylsulfate [EMIM ethylsulfate]” showed an Inhibiting period of 386 min.
For the molecule “N-ethyl-N′-methylimidazolium isononanoate [EMIM isononanoate]”, the Inhibiting period in data set [1] (additive 1000 ppm) amounted to 379 min.
In data set [1] (additive 22 ppm), “tetrabutylammonium [2-(2-methoxyethoxy)ethoxy]acetate [TBA ether carboxylate]” registered an Inhibiting period of 378 min.
